Assay results as given in paper PMC9993459, “A novel selective spleen tyrosine kinase inhibitor SKI-O-703 (cevidoplenib) ameliorates lupus nephritis and serum-induced arthritis in murine models” (Clinical and Experimental Immunology, 2022).

Columns and labels:
[1] = tested on: Syk phosphorylation (Y525/526), BLNK, PLCγ1, Vav1; test: Immunoblotting of phosphorylated Syk and downstream molecules in Ramos cells, human primary monocytes and THP-1 cells; assay type: cell-based; conditions: all three cell lines, dose-dependent, more potent than R406
Experimental: THP-1 and Ramos cell lines and human CD14^+ monocytes were purchased from the American Type Culture Collection (ATCC) and Lonza, respectively. After treatment with Syk inhibitors for 1 h, THP-1 cells and monocytes were stimulated for 15 min with 100 μg/ml human IgG (Invitrogen), and Ramos cells were stimulated with 2 μg/ml anti-human IgM monoclonal Ab (mAb) (Bathyl). Cells were lysed in RIPA buffer containing 1% NP-40, 1% sodium deoxycholate, 0.1% SDS, and a mixture of protease and phosphatase inhibitors (Thermo Scientific). The lysates were assayed by standard immunoblotting methods and ELISA. Primary Abs used for immunoblotting were anti-phospho-Syk ([…]), anti-phospho-Vav (Y174), anti-phospho-PLCγ1 (Y1217) and anti-phospho-BLNK (Y96) Abs (all from Cell Signaling). ELISAs to detect phospho-Syk (Y525/526) were performed according to the manufacturer’s protocol (Cell Signaling).
Figure 1: in vitro inhibitory effects of SKI-O-592 and -703 on Syk in B cells and monocytes. […] The relative intensities of protein phosphorylation levels were quantitated with reference to each lane of β-actin control bands. (D) Ramos cells, human primary monocytes, and THP cells were treated as in A–C for 24 h and levels of phosphorylated Syk (p-Syk) were measured by ELISA. […] A representative FACS profile and data on the dose-response of mean fluorescence intensity (MFI) are shown. […]

[2] = tested on: NZB/W F1 mice; test: NZB/W mouse model of SLE / lupus nephritis, oral dosing; assay type: in vivo
Experimental: NZB/W female mice aged 18 weeks were assigned to four groups by distributing mice by body weight and anti-dsDNA IgG titer equivalently across the groups. Each group of mice was administered orally with 42 mg per kg body weight (mpk) of SKI-O-703 dissolved in 50 mM citric acid, 84 mpk of SKI-O-703, 30 mpk of tofacitinib (Selleckchem) dissolved in 0.5% carboxymethyl cellulose (Sigma Aldrich) containing 0.025% Tween 20, or a mixture of the two vehicles. The drugs were given once daily up to 34 weeks of age. Body weight was measured every 2 weeks and serum was collected every 4 weeks. At the termination of the experiments (34 weeks of age), serum, urine, spleen, BM, and kidneys were removed post mortem and assayed by histopathological and biochemical methods as below. Levels of blood urea nitrogen (BUN) and creatinine were measured by Knotus (Incheon, Korea).
Kidneys removed from the NZB/W mice were fixed in 4% paraformaldehyde, embedded in paraffin, sectioned at 3 μm thickness, and stained with periodic acid-Schiff (PAS) and hematoxylin (Sigma Aldrich). […] Glomerular size was measured using Image J software. To assess the glomerular size and hypercellularity of each mouse, more than 20 glomeruli per mouse were individually examined and averaged.
Kidneys and spleens of NZB/W mice were embedded in OCT compound (Sakura Finetek, Torrance, CA, USA) and snap-frozen in liquid nitrogen. Frozen sections were fixed in acetone and blocked with 10% normal donkey serum (Sigma Aldrich). Kidney sections were stained with a 1:200 dilution of anti-IgG-biotin (Sigma Aldrich), anti-IgM-biotin (Southern Biotech) and anti-C3-biotin (Bioss), followed by reaction with 1:200-dilution of streptavidin-cy3 (Invitrogen). Spleen sections were stained with anti-GL7-FITC, anti-CD4-APC, and anti-IgD-PE (all from BD Biosciences or eBioscience). Fluorescence images were acquired using a TCS SP5 confocal microscope (Leica). The area of GCs composed with GL7^+ cells per image was calculated using ImageJ software (NIH, Bethesda, MD, USA).
Titers of anti-dsDNA IgG Ab were measured by ELISA, as described previously. In brief, sera were diluted 1/10 000 to 1/50 000 in PBS and applied to immunosorbent plates (Nunc) precoated with 5 μg/ml poly-L-lysine and 5 μg/ml thymic DNA (Sigma Aldrich). The serum containing the highest titer of anti-dsDNA IgG was serially diluted and used as standard. The plates were incubated with anti-mouse IgG-biotin (Sigma Aldrich) and streptavidin-HRP (BD Biosciences). The concentration of albumin in urine was measured by quantitative ELISA using a mouse albumin ELISA kit (Bethyl), according to the manufacturer’s instructions. The concentration of serum B-cell activating factor of the TNF family (BAFF) was quantitated using a BAFF/BLys/TNFSF13B ELISA Kit (R&D Systems).
Single-cell suspensions of spleen and LN cells were prepared as previously described. Joint tissues from hind paws of KSTA mice were dissected free of soft tissue and bones, digested with 100 μg/ml Liberase (Roche) for 45 min at 37 °C, and filtered through a 70-μm-pore cell strainer (SPL Life Sciences) to prepare single cell suspensions of synovial infiltrates. The single cell suspensions were stained with an appropriate combination of mAbs and analyzed by FACS. The mAbs used were: CD138-PE, B220-PerCP or -APC-cy7, FAS-PE, CD19-PerCP or -APC, CD21-FITC or -APC, CD43-APC, CD23-PE-cy7, CD8a-PE, CD25-APC-cy7, CXCR5-biotin, GL7-FITC, CD45.2-FITC, CD27-FITC, Ki-67-FITC, Gr-1-FITC, CD4-FITC or -APC-cy7, phospho-Syk-PE, CD11b-PE or -PerCP, PD-1-APC, CD44-APC-cy7, and F4/80-PerCP mAbs (all from BD Biosciences, eBioscience or Biolegend). Streptavidin-PerCP was purchased from BD Biosciences.
Splenic CD19^+ B cells from NZB/W mice were sorted by MACS, and lysed with Trizol reagent (Invitrogen) followed by standard methods of total RNA purification. The RNA was assayed by RT and quantitative PCR as described. […]

[3] = 84 mpk oral once daily, 18-34 weeks of age
[4] = high dose (84 mpk), 34 weeks, FACS

Row | SMILES | Phosphorylation of Syk Y525/526 and downstream BLNK, PLCγ1, Vav1 (immunoblotting) [1] | Concentrations of BUN and creatinine ([2]; 42 mpk (low-dose), 34 weeks of age) | Rise of serum anti-dsDNA IgG Ab level ([2]; 42 mpk oral once daily) | Glomerular IgM and C3 staining intensities ([2]; 84 mpk (high dose)) | Concentrations of BUN and creatinine ([2]; 84 mpk (high-dose), 34 weeks of age) | Body weights [2, 3] | Spleen weights [2, 3] | Rise of serum anti-dsDNA IgG Ab level ([2]; 84 mpk oral once daily, P < 0.01 by two-way ANOVA) | Concentration of urinary albumin ([2]; 84 mpk, 34 weeks of age, vehicle mean 742.9 mg/dl) | Number of splenic T cells [2, 4] | Total spleen cells [2, 4] | CXCR5+PD-1+ Tfh cells ([2]; high dose (84 mpk), spleen) | Splenic follicular, GC B cells and plasma cells ([2]; high dose (84 mpk), vs vehicle controls) | Level of serum BAFF ([2]; high dose, ELISA) | BAFF receptor expression in splenic B cells ([2]; high dose, quantitative RT-PCR) | BM hematopoiesis ([2]; long-term treatment (16 weeks))
1 | Cc1nn(-c2ccnc(Nc3ccc4c(c3)c(C(=O)C3CC3)cn4C)n2)cc1CN1C[C@H](O)CO1 [SKI-O-592] | inhibited phosphorylation | – | – | – | – | – | – | – | – | – | – | – | – | – | – | –
2 | CS(=O)(=O)O.CS(=O)(=O)O.Cc1nn(-c2ccnc(Nc3ccc4c(c3)c(C(=O)C3CC3)cn4C)n2)cc1CN1C[C@H](O)CO1 [SKI-O-703, (S)-cyclopropyl(5-((4-(4-((4-hydroxyisoxazolidin-2-yl)methyl)-3-methyl-1H-pyrazol-1-yl)pyrimidin-2-yl)amino)-1-methyl-1H-indol-3-yl)methanone dimesylate] | – | significantly lowered | did not have the same effect, and even temporarily elevated the Ab titer | significantly reduced | significantly lowered | without significantly affecting body weights | significantly reduced spleen weights | dramatically attenuated | markedly reduced | not significantly altered | significantly less numerous | reduced in number | significantly less numerous | also reduced | reduced level | appeared not to interfere with BM hematopoiesis
